Test results from the supplement of paper PMC10307832.

Experiments:
Assay in all cases: relative viability (nuclei count vs DMSO), 5 days (fraction); higher = more cells survive
[1] = compound: COC1=CC(c2cc3ccccc3[nH]2)=N/C1=C\c1[nH]c(C)cc1C [Obatoclax] + COc1cc2c(Oc3ccc(NC(=O)C4(C(=O)Nc5ccc(F)cc5)CC4)cc3F)ccnc2cc1OCCCN1CCOCC1 [Foretinib] (partner 0.25 µM)
Summary of the method: (§1)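 Cells from lung cancer lines were seeded into 1536-well plates and, one day later, dosed by pin tool. Treatments were either a single drug or a fixed dose of an anchor drug with five library-drug doses (not always all listed) in √10 steps. After 5 days, nuclei were stained in a one-step fixation (final 0.05% Triton X-100, 1% formaldehyde, 1 ug/ml Hoechst) and counted on 4× images, and relative viability is the treated-to-vehicle nuclei ratio, as the median of duplicate plates.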

[2] = compound: COC1=CC(c2cc3ccccc3[nH]2)=N/C1=C\c1[nH]c(C)cc1C [Obatoclax] + O=C(CCCCCCC(=O)Nc1ccccc1)NO [Vorinostat] (partner 1 µM)
Summary of the method: as §1

[3] = compound: CC1=CC(=NN1)NC2=CC(=NC(=N2)/C=C/C3=CC=CC=C3)N4CCN(CC4)C + Cc1nc(Nc2ncc(C(=O)Nc3c(C)cccc3Cl)s2)cc(N2CCN(CCO)CC2)n1 [Dasatinib] (partner 0.075 µM)
Summary of the method: as §1

[4] = compound: CC1=CC(=NN1)NC2=CC(=NC(=N2)/C=C/C3=CC=CC=C3)N4CCN(CC4)C + CCNC(=O)c1noc(-c2cc(C(C)C)c(O)cc2O)c1-c1ccc(CN2CCOCC2)cc1 [Luminespib] (partner 0.01 µM)
Summary of the method: as §1

Cell Line	relative viability ([1]; first compound 0.01 µM)	relative viability ([1]; first compound 0.03162 µM)	relative viability ([1]; first compound 0.1 µM)	relative viability ([1]; first compound 0.3162 µM)	relative viability ([1]; first compound 1 µM)	relative viability ([2]; first compound 0.01 µM)	relative viability ([2]; first compound 0.03162 µM)	relative viability ([2]; first compound 0.1 µM)	relative viability ([2]; first compound 0.3162 µM)	relative viability ([2]; first compound 1 µM)	relative viability ([3]; first compound 0.08 µM)	relative viability ([3]; first compound 0.253 µM)	relative viability ([3]; first compound 0.8 µM)	relative viability ([3]; first compound 2.53 µM)	relative viability ([3]; first compound 8 µM)	relative viability ([4]; first compound 0.08 µM)	relative viability ([4]; first compound 0.253 µM)	relative viability ([4]; first compound 0.8 µM)	relative viability ([4]; first compound 2.53 µM)	relative viability ([4]; first compound 8 µM)
NCI-H23	1.04	1	0.986	0.826	1.01	0.593	0.755	0.569	0.653	0.316	0.769	0.764	0.815	0.683	0.137	0.183	0.206	0.197	0.212	0.205
NCI-H1355	1.04	0.936	0.986	0.94	0.529	0.623	0.625	0.627	0.601	0.623	0.723	0.727	0.684	0.248	0.121	0.744	0.644	0.682	0.47	0.129
COR-L23	0.878	1.05	0.927	0.51	0.323	0.562	0.507	0.42	0.166	0.18	0.423	0.445	0.493	0.143	0.0623	0.723	0.813	0.593	0.398	0.0972
NCI-H2023	0.944	0.841	0.804	0.804	0.316	0.489	0.613	0.632	0.553	0.376	0.575	0.588	0.555	0.0936	0.0621	0.741	1.12	0.524	0.0645	0.0624
